What was measured:
[1] = tested on: TRF1 mRNA in CHA 9-3 lung cancer cells; assay: TRF1 mRNA by qPCR; type: cell-based, mouse; details: 10 μM, 24 h
[2] = tested on: TRF1 protein in p53−/− MEFs nuclear extracts; assay: Western blot of nuclear TRF1 in p53−/− MEFs; type: cell-based, mouse; details: 10 μM
Description: Blots were incubated with the primary antibodies anti-TRF1 1:500 (home-made monoclonal Rat, CNIO; TRF-78, ABCAM, ab10579) and with anti-SMC1 1:2000 (Bethyl Laboratories #A300-055A) as loading control. For nuclear protein preparation, the Nuclear/Cytosol Fractionation Kit (K266-100, BioVision) was used according to the manufactures protocol.

[3] = tested on: aggressive lung cancer in mice; parameters: method as in PMID 25971796; details: mice with aggressive lung cancer; cited from earlier work
[4] = target: T1, PI3K-β (p110β/p85α) (Homo sapiens, UniProt P42338); assay: PI3K isoforms biochemical assay (HTRF), PI3K-β; details: read-out: PI3Kβ IC50
T1 construct: purchased Millipore #14-603
T1 sequence (P42338 whole entry, canonical isoform): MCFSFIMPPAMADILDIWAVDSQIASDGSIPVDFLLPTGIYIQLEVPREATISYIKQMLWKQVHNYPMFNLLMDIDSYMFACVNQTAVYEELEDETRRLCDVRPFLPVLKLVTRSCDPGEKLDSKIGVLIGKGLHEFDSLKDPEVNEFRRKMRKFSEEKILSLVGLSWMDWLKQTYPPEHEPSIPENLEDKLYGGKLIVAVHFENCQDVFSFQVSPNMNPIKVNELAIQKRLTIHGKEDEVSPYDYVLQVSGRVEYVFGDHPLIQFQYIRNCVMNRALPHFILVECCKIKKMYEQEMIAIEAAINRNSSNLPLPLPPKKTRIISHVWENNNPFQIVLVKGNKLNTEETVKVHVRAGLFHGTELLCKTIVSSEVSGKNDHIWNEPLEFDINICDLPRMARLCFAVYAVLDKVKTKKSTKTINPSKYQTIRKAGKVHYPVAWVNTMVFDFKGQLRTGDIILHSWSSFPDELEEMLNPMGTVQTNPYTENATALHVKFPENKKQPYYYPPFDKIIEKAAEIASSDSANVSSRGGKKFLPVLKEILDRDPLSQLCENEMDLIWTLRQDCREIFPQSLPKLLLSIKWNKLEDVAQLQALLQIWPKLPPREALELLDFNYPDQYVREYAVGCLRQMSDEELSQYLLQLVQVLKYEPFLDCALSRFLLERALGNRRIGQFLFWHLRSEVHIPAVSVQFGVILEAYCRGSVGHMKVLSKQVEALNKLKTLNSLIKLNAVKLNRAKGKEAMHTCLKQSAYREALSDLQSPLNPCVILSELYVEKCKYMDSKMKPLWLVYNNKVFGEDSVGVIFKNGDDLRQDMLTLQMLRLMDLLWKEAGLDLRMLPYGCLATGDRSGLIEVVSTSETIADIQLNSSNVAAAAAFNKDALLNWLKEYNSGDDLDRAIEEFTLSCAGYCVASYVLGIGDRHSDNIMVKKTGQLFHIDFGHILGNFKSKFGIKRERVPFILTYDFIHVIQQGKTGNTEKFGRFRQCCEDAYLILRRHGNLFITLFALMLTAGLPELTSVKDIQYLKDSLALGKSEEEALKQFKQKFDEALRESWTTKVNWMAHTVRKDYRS
T1 sequence (P27986 whole entry partner, canonical isoform): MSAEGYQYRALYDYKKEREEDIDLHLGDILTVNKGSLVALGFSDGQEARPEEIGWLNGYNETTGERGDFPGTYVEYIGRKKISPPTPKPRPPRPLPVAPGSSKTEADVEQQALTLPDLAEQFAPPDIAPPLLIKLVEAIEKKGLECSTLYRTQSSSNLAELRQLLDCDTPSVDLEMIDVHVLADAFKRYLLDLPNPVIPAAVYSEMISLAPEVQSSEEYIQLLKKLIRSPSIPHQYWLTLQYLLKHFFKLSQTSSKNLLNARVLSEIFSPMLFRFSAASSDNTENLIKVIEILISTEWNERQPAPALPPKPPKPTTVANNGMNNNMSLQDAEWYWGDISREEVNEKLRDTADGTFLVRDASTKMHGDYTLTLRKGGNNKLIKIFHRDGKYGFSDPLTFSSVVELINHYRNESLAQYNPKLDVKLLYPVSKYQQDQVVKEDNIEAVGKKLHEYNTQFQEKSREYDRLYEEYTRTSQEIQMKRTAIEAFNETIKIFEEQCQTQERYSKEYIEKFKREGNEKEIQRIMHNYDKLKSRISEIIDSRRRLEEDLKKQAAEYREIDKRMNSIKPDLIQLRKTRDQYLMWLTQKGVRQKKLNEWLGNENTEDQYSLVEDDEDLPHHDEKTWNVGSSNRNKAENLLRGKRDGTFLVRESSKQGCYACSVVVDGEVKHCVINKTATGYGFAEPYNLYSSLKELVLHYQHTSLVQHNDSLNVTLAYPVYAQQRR
Description: (§1) PI3Kα (p110α/p85α), PI3K-δ (p110δ/p85α), and PI3K-γ (p110γ) were purchased from Invitrogen (PV4789, PV 5274, and PV4787, respectively). PI3K-β (p110β/p85α) was obtained from Millipore (#14-603). The kinase activity was measured with the commercial PI3-kinase (human) HTRF™ assay available from Millipore (#33-017), following the manufacturer recommendations. The final enzyme concentration in the assay were 100 pM for PI3K-α and PI3K-δ, 500 pM for PI3K-β, and 4 nM for PI3K-γ. […] The enzyme was preincubated with the inhibitor and with 10 μM of PIP2 for 5 min. The enzymatic reaction was started by addition of ATP at 50 times the Km. The incubation was kept at 37 °C for 60 min. Stop solution and detection mix were added sequentially to the wells and plates were incubated 3 h in the dark at 25 °C. HTRF counts were measured in an EnVision reader (Perkin Elmer) using the recommended settings. Values were normalized against the control activity included for the enzyme (100% PI3 kinase activity, without compound). These values were plotted against the inhibitor concentration and were fit to a sigmoid dose-response curve by using Activity base software from IDBS.

[5] = target: T2, PI3K-γ (p110γ) (Homo sapiens, UniProt P48736); assay: PI3K isoforms biochemical assay (HTRF), PI3K-γ; details: read-out: PI3Kγ IC50
T2 construct: purchased Invitrogen PV4787
T2 sequence (P48736 whole entry, canonical isoform): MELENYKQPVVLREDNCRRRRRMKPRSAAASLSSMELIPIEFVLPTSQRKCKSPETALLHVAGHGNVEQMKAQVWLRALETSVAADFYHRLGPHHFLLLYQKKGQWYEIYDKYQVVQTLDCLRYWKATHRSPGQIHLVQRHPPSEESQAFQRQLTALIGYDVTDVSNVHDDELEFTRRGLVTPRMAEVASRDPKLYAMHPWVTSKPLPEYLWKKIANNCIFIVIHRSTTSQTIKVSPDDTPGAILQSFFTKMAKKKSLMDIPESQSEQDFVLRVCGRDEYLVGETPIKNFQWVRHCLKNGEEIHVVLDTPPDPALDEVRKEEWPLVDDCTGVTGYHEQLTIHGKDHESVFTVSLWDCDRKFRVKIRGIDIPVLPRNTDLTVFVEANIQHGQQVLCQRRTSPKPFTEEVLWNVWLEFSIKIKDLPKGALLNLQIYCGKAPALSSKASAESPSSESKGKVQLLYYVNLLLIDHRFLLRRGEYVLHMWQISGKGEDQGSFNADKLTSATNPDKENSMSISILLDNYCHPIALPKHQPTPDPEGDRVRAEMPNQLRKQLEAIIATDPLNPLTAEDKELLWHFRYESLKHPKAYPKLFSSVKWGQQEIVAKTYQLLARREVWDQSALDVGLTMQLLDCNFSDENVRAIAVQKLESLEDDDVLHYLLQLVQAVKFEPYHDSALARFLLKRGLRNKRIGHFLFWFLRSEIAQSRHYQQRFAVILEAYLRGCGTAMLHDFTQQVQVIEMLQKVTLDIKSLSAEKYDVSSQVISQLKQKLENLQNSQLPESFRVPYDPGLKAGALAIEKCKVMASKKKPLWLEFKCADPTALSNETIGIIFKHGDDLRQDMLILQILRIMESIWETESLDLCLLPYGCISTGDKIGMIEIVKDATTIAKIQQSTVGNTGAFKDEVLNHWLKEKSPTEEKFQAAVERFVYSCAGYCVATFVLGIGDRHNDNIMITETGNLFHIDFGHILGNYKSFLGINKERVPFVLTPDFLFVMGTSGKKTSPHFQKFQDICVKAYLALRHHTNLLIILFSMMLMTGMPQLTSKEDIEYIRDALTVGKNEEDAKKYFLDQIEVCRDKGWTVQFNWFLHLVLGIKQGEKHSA
Description: as §1

[6] = target: T3, PI3K-δ (p110δ/p85α) (Homo sapiens, UniProt O00329); assay: PI3K isoforms biochemical assay (HTRF), PI3K-δ; details: read-out: PI3Kδ IC50
T3 construct: purchased Invitrogen PV 5274
T3 sequence (O00329 whole entry, canonical isoform): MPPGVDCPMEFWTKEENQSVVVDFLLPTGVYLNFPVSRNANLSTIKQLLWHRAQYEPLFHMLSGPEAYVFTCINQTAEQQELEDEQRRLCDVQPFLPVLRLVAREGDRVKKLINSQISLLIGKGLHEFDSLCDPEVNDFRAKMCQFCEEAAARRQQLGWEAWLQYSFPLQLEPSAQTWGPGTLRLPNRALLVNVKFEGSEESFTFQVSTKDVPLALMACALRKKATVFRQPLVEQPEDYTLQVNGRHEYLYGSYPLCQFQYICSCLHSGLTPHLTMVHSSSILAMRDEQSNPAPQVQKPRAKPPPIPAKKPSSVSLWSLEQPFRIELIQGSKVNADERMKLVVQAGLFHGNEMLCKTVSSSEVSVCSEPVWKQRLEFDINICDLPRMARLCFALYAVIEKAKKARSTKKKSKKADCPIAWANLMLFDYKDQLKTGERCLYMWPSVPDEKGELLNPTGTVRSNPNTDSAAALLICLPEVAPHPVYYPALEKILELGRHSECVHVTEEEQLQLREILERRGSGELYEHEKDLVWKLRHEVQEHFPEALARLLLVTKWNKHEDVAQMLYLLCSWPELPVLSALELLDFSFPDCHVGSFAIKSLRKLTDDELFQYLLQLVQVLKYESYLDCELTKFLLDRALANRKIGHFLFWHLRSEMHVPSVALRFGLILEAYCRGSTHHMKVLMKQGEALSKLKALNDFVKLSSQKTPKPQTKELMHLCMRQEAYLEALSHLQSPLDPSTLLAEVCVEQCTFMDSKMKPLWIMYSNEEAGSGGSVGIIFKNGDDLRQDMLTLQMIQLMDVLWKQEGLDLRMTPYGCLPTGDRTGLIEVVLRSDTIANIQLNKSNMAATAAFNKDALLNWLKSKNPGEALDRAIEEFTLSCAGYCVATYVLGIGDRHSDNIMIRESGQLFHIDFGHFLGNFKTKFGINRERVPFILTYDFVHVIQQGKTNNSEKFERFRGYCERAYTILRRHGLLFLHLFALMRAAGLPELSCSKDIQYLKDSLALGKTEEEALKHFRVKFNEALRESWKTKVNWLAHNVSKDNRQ
T3 sequence (P27986 whole entry partner, canonical isoform): as the sequence (P27986 whole entry partner, canonical isoform) above
Description: as §1

CS(=O)(=O)N1CCN(Cc2cc3c(N4CCOCC4)nc(-c4cnc(N)nc4)cn3n2)CC1 [ETP-47037]
TRF1 mRNA levels [1]: None of the inhibitors significantly affected | Total nuclear TRF1 levels compared to DMSO [2]: decreased | Telomere TRF1 foci in vivo [3]: significantly decreased | Telomeric DNA damage in vivo [3]: induced telomeric DNA damage | Tumor growth as compared to non-treated mice [3]: blocked tumor growth | IC50 [4]: 49.2 nM | IC50 [5]: 49.1 nM | IC50 [6]: 7.13 nM

From publication PMC5668434, “Modulation of telomere protection by the PI3K/AKT pathway” (Nature Communications, 2017)
